# Data published in ChEMBL document CHEMBL5724914, “Linking interpersonal differences in gut microbiota composition and drug biotransformation activity” (2024).
# Conditions: human gut metagenome, 24 h, 2 µM
# Note: call rule not given here.
row,Bacterial Biotransformation,Structure (SMILES)
1,Compound NOT metabolized,CCCc1nc2c(C)cc(-c3nc4ccccc4n3C)cc2n1Cc1ccc(-c2ccccc2C(=O)O)cc1
2,Compound NOT metabolized,CCN(CC)CCOC(=O)C(Cc1cccc2ccccc12)CC1CCCO1.O=C(O)C(=O)O (stereo not given) [NAFRONYL OXALATE]

# Conditions: human gut metagenome, 24 h, 2 µM
# Remark: another data set of the same source
row,Bacterial Biotransformation,Structure (SMILES)
1,Compound metabolized,CCCc1nc2c(C)cc(-c3nc4ccccc4n3C)cc2n1Cc1ccc(-c2ccccc2C(=O)O)cc1
2,Compound metabolized,CCN(CC)CCOC(=O)C(Cc1cccc2ccccc12)CC1CCCO1.O=C(O)C(=O)O (stereo not given) [NAFRONYL OXALATE]

# Conditions: human gut metagenome, 24 h, 2 µM
# Remark: another data set of the same source
row,Bacterial Biotransformation,Structure (SMILES)
1,Compound metabolized,CCCc1nc2c(C)cc(-c3nc4ccccc4n3C)cc2n1Cc1ccc(-c2ccccc2C(=O)O)cc1
2,Compound metabolized,CCN(CC)CCOC(=O)C(Cc1cccc2ccccc12)CC1CCCO1.O=C(O)C(=O)O (stereo not given) [NAFRONYL OXALATE]

# Assay: (§1) The drug is tested on Z-007 corresponding to rat gut metagenome with ENA study accession number: PRJEB37062 and ENA sample accession number: ERS12561807 for biotransformation under anaerobic condition. The drug concentrations were measured over 9 timepoints collected between 0 and 24 hours of incubation by liquid-chromatography-coupled mass spectrometry (LC–MS)
# Conditions: 2 µM
row,Bacterial Biotransformation,Structure (SMILES)
1,Compound metabolized,CCCc1nc2c(C)cc(-c3nc4ccccc4n3C)cc2n1Cc1ccc(-c2ccccc2C(=O)O)cc1
2,Compound NOT metabolized,CCN(CC)CCOC(=O)C(Cc1cccc2ccccc12)CC1CCCO1.O=C(O)C(=O)O (stereo not given) [NAFRONYL OXALATE]

# Assay: as §1, with “Z-005” for “Z-007”, “to” for “to rat gut”, “ERS12561805” for “ERS12561807”
# Conditions: 2 µM
row,Bacterial Biotransformation,Structure (SMILES)
1,Compound metabolized,CCCc1nc2c(C)cc(-c3nc4ccccc4n3C)cc2n1Cc1ccc(-c2ccccc2C(=O)O)cc1
2,Compound metabolized,CCN(CC)CCOC(=O)C(Cc1cccc2ccccc12)CC1CCCO1.O=C(O)C(=O)O (stereo not given) [NAFRONYL OXALATE]

# Conditions: human gut metagenome, 24 h, 2 µM
# Remark: another data set of the same source
row,Bacterial Biotransformation,Structure (SMILES)
1,Compound metabolized,CCCc1nc2c(C)cc(-c3nc4ccccc4n3C)cc2n1Cc1ccc(-c2ccccc2C(=O)O)cc1
2,Compound metabolized,CCN(CC)CCOC(=O)C(Cc1cccc2ccccc12)CC1CCCO1.O=C(O)C(=O)O (stereo not given) [NAFRONYL OXALATE]

# Conditions: human gut metagenome, 24 h, 2 µM
# Remark: another data set of the same source
row,Bacterial Biotransformation,Structure (SMILES)
1,Compound metabolized,CCCc1nc2c(C)cc(-c3nc4ccccc4n3C)cc2n1Cc1ccc(-c2ccccc2C(=O)O)cc1
2,Compound metabolized,CCN(CC)CCOC(=O)C(Cc1cccc2ccccc12)CC1CCCO1.O=C(O)C(=O)O (stereo not given) [NAFRONYL OXALATE]

# Conditions: human gut metagenome, 24 h, 2 µM
# Remark: another data set of the same source
row,Bacterial Biotransformation,Structure (SMILES)
1,Compound metabolized,CCCc1nc2c(C)cc(-c3nc4ccccc4n3C)cc2n1Cc1ccc(-c2ccccc2C(=O)O)cc1
2,Compound metabolized,CCN(CC)CCOC(=O)C(Cc1cccc2ccccc12)CC1CCCO1.O=C(O)C(=O)O (stereo not given) [NAFRONYL OXALATE]

# Conditions: human gut metagenome, 24 h, 2 µM
# Remark: another data set of the same source
row,Bacterial Biotransformation,Structure (SMILES)
1,Compound metabolized,CCCc1nc2c(C)cc(-c3nc4ccccc4n3C)cc2n1Cc1ccc(-c2ccccc2C(=O)O)cc1
2,Compound NOT metabolized,CCN(CC)CCOC(=O)C(Cc1cccc2ccccc12)CC1CCCO1.O=C(O)C(=O)O (stereo not given) [NAFRONYL OXALATE]

# Assay: as §1, with “Z-029” for “Z-007”, “ERS12561828” for “ERS12561807”
# Conditions: 2 µM
row,Bacterial Biotransformation,Structure (SMILES)
1,Compound NOT metabolized,CCCc1nc2c(C)cc(-c3nc4ccccc4n3C)cc2n1Cc1ccc(-c2ccccc2C(=O)O)cc1
2,Compound NOT metabolized,CCN(CC)CCOC(=O)C(Cc1cccc2ccccc12)CC1CCCO1.O=C(O)C(=O)O (stereo not given) [NAFRONYL OXALATE]

# Conditions: human gut metagenome, 24 h, 2 µM
# Remark: another data set of the same source
row,Bacterial Biotransformation,Structure (SMILES)
1,Compound metabolized,CCCc1nc2c(C)cc(-c3nc4ccccc4n3C)cc2n1Cc1ccc(-c2ccccc2C(=O)O)cc1
2,Compound metabolized,CCN(CC)CCOC(=O)C(Cc1cccc2ccccc12)CC1CCCO1.O=C(O)C(=O)O (stereo not given) [NAFRONYL OXALATE]

# Assay: as §1, with “on WLS-240” for “on Z-007”, “to human” for “to rat”, “number: ERS12561773” for “number: ERS12561807”
# Conditions: 2 µM
row,Bacterial Biotransformation,Structure (SMILES)
1,Compound metabolized,CCCc1nc2c(C)cc(-c3nc4ccccc4n3C)cc2n1Cc1ccc(-c2ccccc2C(=O)O)cc1
2,Compound metabolized,CCN(CC)CCOC(=O)C(Cc1cccc2ccccc12)CC1CCCO1.O=C(O)C(=O)O (stereo not given) [NAFRONYL OXALATE]

# Assay: as §1, with “on WLS-082” for “on Z-007”, “to human” for “to rat”, “number: ERS12561751” for “number: ERS12561807”
# Conditions: 2 µM
row,Bacterial Biotransformation,Structure (SMILES)
1,Compound metabolized,CCCc1nc2c(C)cc(-c3nc4ccccc4n3C)cc2n1Cc1ccc(-c2ccccc2C(=O)O)cc1
2,Compound metabolized,CCN(CC)CCOC(=O)C(Cc1cccc2ccccc12)CC1CCCO1.O=C(O)C(=O)O (stereo not given) [NAFRONYL OXALATE]

# Assay: as §1, with “on WLS-350” for “on Z-007”, “to human” for “to rat”, “number: ERS12561789” for “number: ERS12561807”
# Conditions: 2 µM
row,Bacterial Biotransformation,Structure (SMILES)
1,Compound metabolized,CCCc1nc2c(C)cc(-c3nc4ccccc4n3C)cc2n1Cc1ccc(-c2ccccc2C(=O)O)cc1
2,Compound metabolized,CCN(CC)CCOC(=O)C(Cc1cccc2ccccc12)CC1CCCO1.O=C(O)C(=O)O (stereo not given) [NAFRONYL OXALATE]

# Conditions: human gut metagenome, 24 h, 2 µM
# Remark: another data set of the same source
row,Bacterial Biotransformation,Structure (SMILES)
1,Compound metabolized,CCCc1nc2c(C)cc(-c3nc4ccccc4n3C)cc2n1Cc1ccc(-c2ccccc2C(=O)O)cc1
2,Compound metabolized,CCN(CC)CCOC(=O)C(Cc1cccc2ccccc12)CC1CCCO1.O=C(O)C(=O)O (stereo not given) [NAFRONYL OXALATE]

# Conditions: human gut metagenome, 24 h, 2 µM
# Remark: another data set of the same source
row,Bacterial Biotransformation,Structure (SMILES)
1,Compound metabolized,CCCc1nc2c(C)cc(-c3nc4ccccc4n3C)cc2n1Cc1ccc(-c2ccccc2C(=O)O)cc1
2,Compound metabolized,CCN(CC)CCOC(=O)C(Cc1cccc2ccccc12)CC1CCCO1.O=C(O)C(=O)O (stereo not given) [NAFRONYL OXALATE]

# Assay: as §1, with “on Z-018” for “on Z-007”, “to pig” for “to rat”, “number: ERS12561817” for “number: ERS12561807”
# Conditions: 2 µM
row,Bacterial Biotransformation,Structure (SMILES)
1,Compound metabolized,CCCc1nc2c(C)cc(-c3nc4ccccc4n3C)cc2n1Cc1ccc(-c2ccccc2C(=O)O)cc1
2,Compound metabolized,CCN(CC)CCOC(=O)C(Cc1cccc2ccccc12)CC1CCCO1.O=C(O)C(=O)O (stereo not given) [NAFRONYL OXALATE]

# Assay: as §1, with “on Z-003” for “on Z-007”, “to pig” for “to rat”, “number: ERS12561803” for “number: ERS12561807”
# Conditions: 2 µM
row,Bacterial Biotransformation,Structure (SMILES)
1,Compound metabolized,CCCc1nc2c(C)cc(-c3nc4ccccc4n3C)cc2n1Cc1ccc(-c2ccccc2C(=O)O)cc1
2,Compound metabolized,CCN(CC)CCOC(=O)C(Cc1cccc2ccccc12)CC1CCCO1.O=C(O)C(=O)O (stereo not given) [NAFRONYL OXALATE]

# Conditions: human gut metagenome, 24 h, 2 µM
# Remark: another data set of the same source
row,Bacterial Biotransformation,Structure (SMILES)
1,Compound metabolized,CCCc1nc2c(C)cc(-c3nc4ccccc4n3C)cc2n1Cc1ccc(-c2ccccc2C(=O)O)cc1
2,Compound metabolized,CCN(CC)CCOC(=O)C(Cc1cccc2ccccc12)CC1CCCO1.O=C(O)C(=O)O (stereo not given) [NAFRONYL OXALATE]

# Assay: as §1, with “Z-012” for “Z-007”, “to” for “to rat gut”, “ERS12561812” for “ERS12561807”
# Conditions: 2 µM
row,Bacterial Biotransformation,Structure (SMILES)
1,Compound metabolized,CCCc1nc2c(C)cc(-c3nc4ccccc4n3C)cc2n1Cc1ccc(-c2ccccc2C(=O)O)cc1
2,Compound metabolized,CCN(CC)CCOC(=O)C(Cc1cccc2ccccc12)CC1CCCO1.O=C(O)C(=O)O (stereo not given) [NAFRONYL OXALATE]
